Results taken from the NIST ThermoML archive (doi:10.1016/j.fluid.2014.06.024).
Numbers after ± are expanded uncertainties.

Assay: molar heat capacity at constant pressure; xn = mol fraction of the nth substance listed
Conditions: 101 kPa, Liquid, Small sample (50 mg) DSC

C1CCOCC1 [tetrahydropyran] + c1ccccc1
molar heat capacity at constant pressure [J/K/mol]
Conditions	298.15 K	303.15 K	308.15 K
x1 = 0.0859	136.89 ± 2.1	138.21 ± 2.1	139.54 ± 2.2
x1 = 0.1279	137.71 ± 2.1	139.06 ± 2.1	140.44 ± 2.2
x1 = 0.1598	138.32 ± 2.1	139.7 ± 2.2	141.1 ± 2.2
x1 = 0.1982	139.05 ± 2.1	140.45 ± 2.2	141.88 ± 2.2
x1 = 0.2254	139.56 ± 2.2	140.97 ± 2.2	142.43 ± 2.2
x1 = 0.2657	140.3 ± 2.2	141.72 ± 2.2	143.21 ± 2.2
x1 = 0.3017	140.94 ± 2.2	142.38 ± 2.2	143.89 ± 2.2
x1 = 0.3509	141.8 ± 2.2	143.26 ± 2.2	144.8 ± 2.2
x1 = 0.3898	142.45 ± 2.2	143.93 ± 2.2	145.5 ± 2.2
x1 = 0.4176	142.91 ± 2.2	144.39 ± 2.2	145.99 ± 2.3
x1 = 0.4428	143.31 ± 2.2	144.81 ± 2.2	146.42 ± 2.3
x1 = 0.4987	144.17 ± 2.2	145.7 ± 2.3	147.36 ± 2.3
x1 = 0.5234	144.54 ± 2.2	146.08 ± 2.3	147.76 ± 2.3
x1 = 0.5592	145.05 ± 2.2	146.61 ± 2.3	148.32 ± 2.3
x1 = 0.5983	145.58 ± 2.3	147.17 ± 2.3	148.91 ± 2.3
x1 = 0.6132	145.78 ± 2.3	147.37 ± 2.3	149.13 ± 2.3
x1 = 0.6478	146.23 ± 2.3	147.84 ± 2.3	149.63 ± 2.3
x1 = 0.6876	146.71 ± 2.3	148.35 ± 2.3	150.17 ± 2.3
x1 = 0.7231	147.12 ± 2.3	148.78 ± 2.3	150.63 ± 2.3
x1 = 0.7623	147.55 ± 2.3	149.22 ± 2.3	151.1 ± 2.3
x1 = 0.7905	147.85 ± 2.3	149.53 ± 2.3	151.42 ± 2.4
x1 = 0.8217	148.15 ± 2.3	149.84 ± 2.3	151.75 ± 2.4
x1 = 0.8507	148.43 ± 2.3	150.12 ± 2.3	152.04 ± 2.4
x1 = 0.9003	148.86 ± 2.3	150.54 ± 2.3	152.47 ± 2.4
